Assays:
KRAS-G2D/SOS1 = KRAS-G2D/SOS1 (Homo sapiens, UniProt P01116, G12D); assay: KRAS-G2D/SOS1 binding experiment (HTRF); conditions: His-tagged G12D protein and Tag1-SOS protein, room temperature
Experimental: • A) Dilute Tagged-His Tag G12D protein and Tag1-SOS protein with diluent at 1:100, and use detection buffer for anti-Tag1-Tb3+ antibody and anti-Tag2-XL665 at 1:100 or 1:25, respectively Dilute. • B) Dilute the compound to be tested with diluent starting from […] concentration, 4 times gradient, a total of 6 concentration gradients, and dilute to 10× stock solution. • C) In a 96-well plate, add 4 uL Tagged-His Tag G12D protein, 4 uL Tag1-SOS protein, 2 ul dilution solution (positive control) or test compound (different concentrations of 10× stock solution) to each well in sequence, a total of 10 ul, and incubate at room temperature for […], add pre-mixed 5 uL anti-Tag1-Tb3+ and 5 uL anti-Tag2-xL665, seal the plate, incubate at room temperature for 2 hours, and read the HTRF signal with a TECAN INFINITEF NANO+ microplate reader.
The ratio of […] and donor excitation signals for each single well was calculated using the formula ratio=665 nm signal value/620 nm signal value×[…]. Data were processed using Graphpadprism5 software. IC50 values were calculated by sigmoidal dose-response curve fitting.

[1] = system: ATCC CRL-1739 (KRASG^12D mutant) cells; assay: Tumor cell proliferation inhibition experiment (Cell Titer-Glo, 72 hours); format: cell-based; conditions: 72 hours incubation, 10% fetal bovine serum, ATP content
Experimental: The ATCC CRL-1739 (KRASG^12D mutant) cells were digested, centrifuged and resuspended, and the cell density was measured with a Scepter automatic cell counter. The cells were diluted to a solution containing 44,000 cells per milliliter, and the density-adjusted cell solution was 90 per well. Microliters were added to a 96-well culture plate. The 96-well plate was placed in a 37° C., 5% CO2 incubator. After the cells were cultured for 24 hours, different concentrations of the compounds to be tested were added. The cells were incubated with the compounds for 72 hours in the presence of 10% fetal bovine serum. Glo Luminescent Cell Viability Assay Kit (see manufacturer's instructions for details) was used to measure ATP content to assess cell growth inhibition. Briefly, 30 μl of Cell Titer-Glo reagent was added to each well, and the plate was shaken for 10 minutes to induce cell lysis. FluoroskanAscentFL (Thermo) assay records the […], and the maximum signal value is obtained from cells treated with DMSO for 72 hours. The minimum signal value was obtained from the medium alone (the number of cells was zero), and the % inhibition rate=(the maximum signal value compound signal value)/(the maximum signal value−the minimum signal value×100%, and the data were processed using Graphpadprism 5 software. By sigmoid Dose-response curve fitting to calculate IC50 value. “A” means IC50≤50 nM; “B” means 50<IC50≤500 nM; “C” means 500<IC50≤2000 nM; “D” means 2000<IC50

Chain of KRAS-G2D/SOS1 (P01116 1-188 isoform P01116-2 G12D): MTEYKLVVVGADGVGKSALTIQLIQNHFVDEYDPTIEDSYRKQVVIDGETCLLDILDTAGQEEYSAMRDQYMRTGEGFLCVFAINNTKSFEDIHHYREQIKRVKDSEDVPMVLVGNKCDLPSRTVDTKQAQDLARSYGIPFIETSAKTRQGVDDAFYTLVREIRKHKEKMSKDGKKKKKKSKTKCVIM

C[C@@H]1CNCCN1c1nc(OC[C@@H]2CCCN2C)nc2nc(-c3c(O)cccc3F)c(F)cc12 [Compound 7, 3-fluoro-2-(6-fluoro-4-((R)-2-methylpiperazin-1-yl)-2-(((S)-1-methylpyrrolidin-2-yl)methoxy)pyrido [2,3-d]pyrimidin-7-yl)phenol]
IC50 (KRAS-G2D/SOS1): > 500 nM
IC50 [1]: > 2000 nM

C[C@@H]1CNCCN1c1nc(OC[C@@H]2CCCN2C)nc2nc(-c3cccc4cccc(Cl)c34)c(F)cc12 [Compound 34, 7-(8-chloronaphthalen-1-yl)-6-fluoro-4-((R)-2-methylpiperazin-1-yl)-2-(((S)-1-methylpyrrolidin-2-yl)methoxy)pyrido [2,3-d]pyrimidine]
IC50 (KRAS-G2D/SOS1): 50 to 500 nM
IC50 [1]: 500 to 2000 nM

C[C@@H]1CNCCN1c1nc(OC[C@@H]2CCCN2C)nc2nc(-c3cc(O)cc4cccc(F)c34)c(F)cc12 [Compound 46, 5-fluoro-4-(6-fluoro-4-((R)-2-methylpiperazin-1-yl)-2-(((S)-1-methylpyrrolidin-2-yl)methoxy)pyrido [2,3-d]pyrimidin-7-yl)naphthalen-2-ol]
IC50 (KRAS-G2D/SOS1): ≤ 50 nM
IC50 [1]: ≤ 50 nM

C[C@@H]1CNCCN1c1nc(OC[C@@H]2CCCN2C)nc2nc(-c3cc(O)cc4cccc(Cl)c34)c(F)cc12 [Compound 45, 5-chloro-4-(6-fluoro-4-((R)-2-methylpiperazin-1-yl)-2-(((S)-1-methylpyrrolidin-2-yl)methoxy)pyrido [2,3-d]pyrimidin-7-yl)naphthalen-2-ol]
IC50 (KRAS-G2D/SOS1): ≤ 50 nM
IC50 [1]: 50 to 500 nM

C[C@@H]1CNCCN1c1nc(NCCN(C)C)nc2nc(-c3c(O)cccc3F)c(F)cc12 [Compound 1, 2-(2-((2-(dimethylamino)ethyl)amino)-6-fluoro-4-((R)-2-methylpiperazin-1-yl)pyrido[2,3-d]pyrimidin-7-yl)-3-fluorophenol]
IC50 (KRAS-G2D/SOS1): > 500 nM
IC50 [1]: > 2000 nM

Oc1cc(-c2nc3nc(OC[C@@]45CCCN4C[C@H](F)C5)cc(N4C[C@H]5CC[C@@H](C4)N5)c3cc2F)c2c(F)cccc2c1 [Compound 57, 4-(5-((1R,5S)-3,8-diazabicyclo[3.2.1]octan-3-yl)-3-fluoro-7-(((2R,7aS)-2-fluorohexahydro-1H-pyrrolizin-7a-yl)methoxy)-1,8-naphthyridin-2-yl)-5-fluoronaphthalen-2-ol]
IC50 (KRAS-G2D/SOS1): ≤ 50 nM
IC50 [1]: ≤ 50 nM

C[C@@H]1CNCCN1c1nc(OC[C@@H]2CCCN2C)nc2nc(-c3cccc4cccc(F)c34)c(F)cc12 [Compound 33, 6-fluoro-7-(8-fluoronaphthalen-1-y1)-4-((R)-2-methylpiperazin-1-y1)-2-(((S)-1-methylpyrrolidin-2-yl)methoxy)pyrido [2,3-d]pyrimidine]
IC50 (KRAS-G2D/SOS1): 50 to 500 nM
IC50 [1]: 50 to 500 nM

C[C@@H]1CNCCN1c1nc(OC[C@@H]2CCCN2C)nc2nc(-c3cc(O)cc4ccccc34)c(F)cc12 [Compound 36, 4-(6-fluoro-4-((R)-2-methylpiperazin-1-yl)-2-(((S)-1-methylpyrrolidin-2-yl)methoxy)pyrido [2,3-d]pyrimidin-7-yl)naphthalen-2-ol]
IC50 (KRAS-G2D/SOS1): ≤ 50 nM
IC50 [1]: > 2000 nM

C#Cc1c(F)ccc2cc(O)cc(-c3nc4nc(OC[C@@]56CCCN5C[C@H](F)C6)nc(N5C[C@H]6CC[C@@H](C5)N6)c4cc3F)c12 [Compound 58, 4-(4-((1R,5S)-3,8-diazabicyclo[3.2.1]octan-3-yl)-6-fluoro-2-(((2R,7aS)-2-fluorotetrahydro-1H-pyrrolizin-7a(5H)-yl)methoxy)pyrido[2,3-d]pyrimidin-7-yl)-5-ethynyl-6-fluoronaphthalen-2-ol]
IC50 (KRAS-G2D/SOS1): ≤ 50 nM
IC50 [1]: ≤ 50 nM

From patent US20240190871A1, “KRASG12D INHIBITOR, PREPARATION METHOD THEREFOR AND APPLICATION THEREOF” (YA THERAPEUTICS INC, priority 2021, published 2024)
